Test results: the kinase profiling compilation of Christmann-Franck et al. (2016)
Values joined by “and” are separate entries in the source; they are usually repeats but may differ in a detail not shown here. Equal values may be shown once.

Assays:
Assay in all cases: radiometric filter-binding kinase assay, Kinase HotSpot
Settings in all cases: compound 0.5 µM; ATP 10 µM
MAPKAPK3 (human) = MAPKAPK3 (human) (UniProt Q16644)
CAMKK2 (human) = CAMKK2 (human) (UniProt Q96RR4)
RPS6KB1 (human) = RPS6KB1 (human) (UniProt P23443)
DAPK3 (human) = DAPK3 (human) (UniProt O43293)
CDK1 CCNB1 (human) = CDK1 CCNB1 (human) (UniProt P06493+P14635)
PAK1 (human) = PAK1 (human) (UniProt Q13153)
CHEK2 (human) = CHEK2 (human) (UniProt O96017)
MYO3B (human) = MYO3B (human) (UniProt Q8WXR4)
FGFR2 (human) = FGFR2 (human) (UniProt P21802)
GSK3B (human) = GSK3B (human) (UniProt P49841)
PRKCH (human) = PRKCH (human) (UniProt P24723)
NTRK1 (human) = NTRK1 (human) (UniProt P04629)
LTK (human) = LTK (human) (UniProt P29376)
PRKG1 (human) = PRKG1 (human) (UniProt Q13976)
MAPK3 (human) = MAPK3 (human) (UniProt P27361)
FGR (human) = FGR (human) (UniProt P09769)
ULK3 (human) = ULK3 (human) (UniProt Q6PHR2)
MYLK2 (human) = MYLK2 (human) (UniProt Q9H1R3)
PLK3 (human) = PLK3 (human) (UniProt Q9H4B4)
MARK1 (human) = MARK1 (human) (UniProt Q9P0L2)
DYRK1B (human) = DYRK1B (human) (UniProt Q9Y463)
CAMK2G (human) = CAMK2G (human) (UniProt Q13555)
FRK (human) = FRK (human) (UniProt P42685)
GRK6 (human) = GRK6 (human) (UniProt P43250)
PRKCE (human) = PRKCE (human) (UniProt Q02156)
ROS1 (human) = ROS1 (human) (UniProt P08922)
CSNK1G2 (human) = CSNK1G2 (human) (UniProt P78368)
FYN (human) = FYN (human) (UniProt P06241)
MELK (human) = MELK (human) (UniProt Q14680)
PNCK (human) = PNCK (human) (UniProt Q6P2M8)
EPHA1 (human) = EPHA1 (human) (UniProt P21709)
MAPK14 (human) = MAPK14 (human) (UniProt Q16539)
EPHA3 (human) = EPHA3 (human) (UniProt P29320)
CDK9 CCNK (human) = CDK9 CCNK (human) (UniProt O75909+P50750)
SYK (human) = SYK (human) (UniProt P43405)
ULK1 (human) = ULK1 (human) (UniProt O75385)
CAMKK1 (human) = CAMKK1 (human) (UniProt Q8N5S9)
PAK7 (human) = PAK7 (human) (UniProt Q9P286)
PKN1 (human) = PKN1 (human) (UniProt Q16512)
CDK5 CDK5R1 p35 (human) = CDK5 CDK5R1 p35 (human) (UniProt Q00535+Q15078)
AURKA (human) = AURKA (human) (UniProt O14965)
MAP3K2 (human) = MAP3K2 (human) (UniProt Q9Y2U5)

Chain of ULK1 (human) (O75385 whole entry, looked up): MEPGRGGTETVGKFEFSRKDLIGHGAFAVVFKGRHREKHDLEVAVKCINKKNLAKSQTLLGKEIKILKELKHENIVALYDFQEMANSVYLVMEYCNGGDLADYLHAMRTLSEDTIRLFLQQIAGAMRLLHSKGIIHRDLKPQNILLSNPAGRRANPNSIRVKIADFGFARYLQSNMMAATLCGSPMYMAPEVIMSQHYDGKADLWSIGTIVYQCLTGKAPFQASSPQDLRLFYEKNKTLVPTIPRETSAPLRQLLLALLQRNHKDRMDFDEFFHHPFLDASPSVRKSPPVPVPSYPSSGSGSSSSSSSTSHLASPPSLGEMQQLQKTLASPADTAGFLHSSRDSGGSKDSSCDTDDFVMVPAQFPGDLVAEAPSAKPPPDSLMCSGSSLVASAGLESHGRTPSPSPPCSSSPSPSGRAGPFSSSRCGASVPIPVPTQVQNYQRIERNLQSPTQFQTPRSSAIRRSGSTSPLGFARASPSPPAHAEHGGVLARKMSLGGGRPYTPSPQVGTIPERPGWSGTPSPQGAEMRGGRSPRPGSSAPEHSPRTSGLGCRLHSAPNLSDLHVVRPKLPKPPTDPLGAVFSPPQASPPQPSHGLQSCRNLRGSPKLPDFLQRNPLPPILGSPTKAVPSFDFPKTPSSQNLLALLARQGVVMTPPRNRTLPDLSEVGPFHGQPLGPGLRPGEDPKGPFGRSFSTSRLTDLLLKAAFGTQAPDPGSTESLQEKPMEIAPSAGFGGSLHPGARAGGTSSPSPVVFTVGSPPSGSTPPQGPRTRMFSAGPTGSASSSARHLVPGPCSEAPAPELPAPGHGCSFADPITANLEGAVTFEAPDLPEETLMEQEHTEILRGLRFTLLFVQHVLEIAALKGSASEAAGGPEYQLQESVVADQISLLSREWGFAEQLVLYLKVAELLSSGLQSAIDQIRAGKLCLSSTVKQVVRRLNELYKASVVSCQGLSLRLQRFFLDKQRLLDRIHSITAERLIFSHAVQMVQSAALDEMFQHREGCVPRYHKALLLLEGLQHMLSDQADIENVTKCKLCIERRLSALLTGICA
Chain of ULK3 (human) (Q6PHR2 whole entry, looked up): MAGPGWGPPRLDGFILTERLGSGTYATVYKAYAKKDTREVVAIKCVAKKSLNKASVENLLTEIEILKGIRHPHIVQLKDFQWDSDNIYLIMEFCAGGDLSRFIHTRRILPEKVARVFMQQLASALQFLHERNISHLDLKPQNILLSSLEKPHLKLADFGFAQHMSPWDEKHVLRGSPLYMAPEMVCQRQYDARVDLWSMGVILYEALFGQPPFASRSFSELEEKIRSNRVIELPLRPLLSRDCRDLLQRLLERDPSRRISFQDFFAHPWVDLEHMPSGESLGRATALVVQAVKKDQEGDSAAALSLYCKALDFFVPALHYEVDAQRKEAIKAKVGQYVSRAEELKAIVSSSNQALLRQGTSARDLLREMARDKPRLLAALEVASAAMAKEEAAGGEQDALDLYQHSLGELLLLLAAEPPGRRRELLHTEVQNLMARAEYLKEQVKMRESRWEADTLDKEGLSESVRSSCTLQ
Chain of CAMKK1 (human) (Q8N5S9 whole entry, looked up): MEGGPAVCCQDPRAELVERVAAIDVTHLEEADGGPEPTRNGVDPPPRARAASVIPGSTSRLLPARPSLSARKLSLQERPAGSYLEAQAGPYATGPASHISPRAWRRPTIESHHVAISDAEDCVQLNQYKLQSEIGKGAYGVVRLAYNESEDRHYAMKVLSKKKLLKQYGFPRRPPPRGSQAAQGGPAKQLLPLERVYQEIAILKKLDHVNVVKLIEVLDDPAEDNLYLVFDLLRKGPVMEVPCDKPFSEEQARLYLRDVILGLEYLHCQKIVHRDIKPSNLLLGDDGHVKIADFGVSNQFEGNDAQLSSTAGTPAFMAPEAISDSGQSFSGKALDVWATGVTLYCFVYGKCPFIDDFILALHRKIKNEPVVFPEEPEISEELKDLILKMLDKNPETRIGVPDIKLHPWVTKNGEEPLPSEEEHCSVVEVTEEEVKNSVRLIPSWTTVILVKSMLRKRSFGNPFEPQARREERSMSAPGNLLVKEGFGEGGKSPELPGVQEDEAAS
Chain of PNCK (human) (Q6P2M8 whole entry, looked up): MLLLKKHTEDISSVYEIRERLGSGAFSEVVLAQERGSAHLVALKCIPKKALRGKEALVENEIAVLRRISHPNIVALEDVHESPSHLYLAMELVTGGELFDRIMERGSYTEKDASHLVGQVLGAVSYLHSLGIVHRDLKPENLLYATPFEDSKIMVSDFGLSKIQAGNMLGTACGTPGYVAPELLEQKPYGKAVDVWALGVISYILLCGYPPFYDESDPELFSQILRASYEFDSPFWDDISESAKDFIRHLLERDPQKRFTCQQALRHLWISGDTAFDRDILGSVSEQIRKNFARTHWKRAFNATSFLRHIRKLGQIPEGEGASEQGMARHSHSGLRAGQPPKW
Chain of RPS6KB1 (human) (P23443 whole entry, looked up): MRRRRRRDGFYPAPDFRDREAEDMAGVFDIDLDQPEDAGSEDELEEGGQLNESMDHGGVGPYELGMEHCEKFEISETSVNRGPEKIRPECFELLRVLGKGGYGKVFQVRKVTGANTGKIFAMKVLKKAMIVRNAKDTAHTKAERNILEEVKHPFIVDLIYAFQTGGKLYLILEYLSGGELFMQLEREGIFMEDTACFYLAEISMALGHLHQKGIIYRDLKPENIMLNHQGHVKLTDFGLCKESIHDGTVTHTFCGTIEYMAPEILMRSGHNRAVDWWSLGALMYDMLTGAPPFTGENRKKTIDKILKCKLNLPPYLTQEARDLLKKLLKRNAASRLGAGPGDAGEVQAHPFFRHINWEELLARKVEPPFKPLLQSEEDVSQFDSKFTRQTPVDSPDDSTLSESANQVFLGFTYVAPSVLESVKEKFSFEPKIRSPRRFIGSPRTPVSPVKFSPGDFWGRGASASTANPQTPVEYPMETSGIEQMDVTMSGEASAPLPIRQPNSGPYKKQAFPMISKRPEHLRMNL
Chain of PAK7 (human) (Q9P286 whole entry, looked up): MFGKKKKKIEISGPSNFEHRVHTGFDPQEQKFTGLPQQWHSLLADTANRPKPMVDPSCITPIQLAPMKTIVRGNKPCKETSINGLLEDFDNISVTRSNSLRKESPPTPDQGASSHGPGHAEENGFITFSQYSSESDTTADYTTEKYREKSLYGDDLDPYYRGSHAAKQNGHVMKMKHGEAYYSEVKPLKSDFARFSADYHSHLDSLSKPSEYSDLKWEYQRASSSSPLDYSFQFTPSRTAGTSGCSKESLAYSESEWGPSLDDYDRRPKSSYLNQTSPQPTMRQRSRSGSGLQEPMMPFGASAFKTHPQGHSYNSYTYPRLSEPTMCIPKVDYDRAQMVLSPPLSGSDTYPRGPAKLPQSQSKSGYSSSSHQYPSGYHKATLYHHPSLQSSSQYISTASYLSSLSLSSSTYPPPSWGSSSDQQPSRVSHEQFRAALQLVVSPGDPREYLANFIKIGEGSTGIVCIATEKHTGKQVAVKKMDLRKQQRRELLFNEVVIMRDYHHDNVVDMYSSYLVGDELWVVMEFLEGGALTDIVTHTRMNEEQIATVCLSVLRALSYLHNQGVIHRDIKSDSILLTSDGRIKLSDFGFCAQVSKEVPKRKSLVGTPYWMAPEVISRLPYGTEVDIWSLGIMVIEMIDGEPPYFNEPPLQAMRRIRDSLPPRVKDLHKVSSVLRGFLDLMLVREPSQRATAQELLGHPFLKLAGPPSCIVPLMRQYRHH
Chain of DAPK3 (human) (O43293 whole entry, looked up): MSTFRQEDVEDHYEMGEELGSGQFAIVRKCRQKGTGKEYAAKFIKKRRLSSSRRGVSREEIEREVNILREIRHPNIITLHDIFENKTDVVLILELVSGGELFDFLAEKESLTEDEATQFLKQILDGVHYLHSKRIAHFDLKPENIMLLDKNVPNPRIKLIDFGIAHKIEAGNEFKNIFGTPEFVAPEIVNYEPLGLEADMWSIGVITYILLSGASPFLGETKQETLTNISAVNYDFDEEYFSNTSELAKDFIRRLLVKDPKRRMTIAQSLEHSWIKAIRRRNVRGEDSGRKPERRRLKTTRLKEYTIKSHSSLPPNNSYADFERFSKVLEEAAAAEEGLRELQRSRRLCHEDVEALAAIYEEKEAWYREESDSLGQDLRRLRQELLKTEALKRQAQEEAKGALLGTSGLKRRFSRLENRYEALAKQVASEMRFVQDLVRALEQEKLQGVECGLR
Chain of PKN1 (human) (Q16512 whole entry, looked up): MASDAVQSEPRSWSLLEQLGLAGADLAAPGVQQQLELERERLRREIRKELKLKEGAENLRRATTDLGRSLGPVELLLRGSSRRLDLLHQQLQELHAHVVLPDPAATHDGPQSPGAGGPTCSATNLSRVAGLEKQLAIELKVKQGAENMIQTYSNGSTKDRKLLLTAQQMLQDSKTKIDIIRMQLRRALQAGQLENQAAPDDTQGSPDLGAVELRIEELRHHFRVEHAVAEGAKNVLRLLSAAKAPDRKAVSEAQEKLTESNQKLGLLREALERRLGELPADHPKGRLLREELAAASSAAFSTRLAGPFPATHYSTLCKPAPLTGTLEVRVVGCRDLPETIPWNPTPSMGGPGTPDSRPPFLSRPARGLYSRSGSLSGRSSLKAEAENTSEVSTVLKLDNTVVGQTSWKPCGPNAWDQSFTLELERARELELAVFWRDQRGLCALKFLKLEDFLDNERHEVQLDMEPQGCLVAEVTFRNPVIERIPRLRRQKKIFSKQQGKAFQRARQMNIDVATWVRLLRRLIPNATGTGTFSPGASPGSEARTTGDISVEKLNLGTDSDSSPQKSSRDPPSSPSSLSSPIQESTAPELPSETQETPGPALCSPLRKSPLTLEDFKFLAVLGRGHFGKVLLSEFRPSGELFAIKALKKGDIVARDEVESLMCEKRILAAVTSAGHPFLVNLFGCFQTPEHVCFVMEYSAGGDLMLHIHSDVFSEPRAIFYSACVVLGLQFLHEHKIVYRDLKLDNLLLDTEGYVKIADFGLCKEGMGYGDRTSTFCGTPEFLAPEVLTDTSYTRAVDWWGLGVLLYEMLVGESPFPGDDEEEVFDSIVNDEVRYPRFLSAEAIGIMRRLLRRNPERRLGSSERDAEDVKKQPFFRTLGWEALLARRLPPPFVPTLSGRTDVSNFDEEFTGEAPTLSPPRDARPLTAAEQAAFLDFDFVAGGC

CCN(CC)CCNC(=O)c1c(C)[nH]c(/C=C2\C(=O)Nc3ccc(Cl)cc32)c1C was tested, and the residual activity (MAPKAPK3 (human)) was 101%, the residual activity (CAMKK2 (human)) was 48% and the residual activity (RPS6KB1 (human)) was 41.7%. The residual activity (DAPK3 (human)) was 54.3%, the residual activity (CDK1 CCNB1 (human)) was 109% and the residual activity (PAK1 (human)) was 93.4%. It also gave a residual activity (CHEK2 (human)) of 6.42%, a residual activity (MYO3B (human)) of 41.3% and a residual activity (FGFR2 (human)) of 29.3%. For the same compound, the residual activity (GSK3B (human)) was 93.1%, the residual activity (PRKCH (human)) was 86.1% and the residual activity (NTRK1 (human)) was 8.73%. The residual activity (LTK (human)) was 11.6%, the residual activity (PRKG1 (human)) was 64.2% and 76.4% and the residual activity (MAPK3 (human)) was 98.8%. It also gave a residual activity (FGR (human)) of 11.5%, a residual activity (ULK3 (human)) of 21.6% and a residual activity (MYLK2 (human)) of 10%. It also gave a residual activity (PLK3 (human)) of 89.8%, a residual activity (MARK1 (human)) of 18.1% and a residual activity (DYRK1B (human)) of 47.5%. The residual activity (CAMK2G (human)) was 8.13%, the residual activity (FRK (human)) was 59.3% and the residual activity (GRK6 (human)) was 46.3%. The residual activity (PRKCE (human)) was 102%, the residual activity (ROS1 (human)) was 43.9% and the residual activity (CSNK1G2 (human)) was 45.2%. For the same compound, the residual activity (FYN (human)) was 28.4%, the residual activity (MELK (human)) was 16.7% and the residual activity (PNCK (human)) was 70.5%. For the same compound, the residual activity (EPHA1 (human)) was 89.4%, the residual activity (MAPK14 (human)) was 103% and the residual activity (EPHA3 (human)) was 92.5%. It also gave a residual activity (CDK9 CCNK (human)) of 40.1%, a residual activity (SYK (human)) of 59.2% and a residual activity (ULK1 (human)) of 13.6%. For the same compound, the residual activity (CAMKK1 (human)) was 47.7%, the residual activity (PAK7 (human)) was 58.9% and the residual activity (PKN1 (human)) was 36.5%. It also gave a residual activity (CDK5 CDK5R1 p35 (human)) of 86.2%, a residual activity (AURKA (human)) of 80.3% and a residual activity (MAP3K2 (human)) of 20.1%.
In the case of O=C1NC(=O)C(c2cn(CCCn3ccnc3)c3ccccc23)=C1Nc1ccccc1, the residual activity (MAPKAPK3 (human)) is reported as 92.4%, the residual activity (CAMKK2 (human)) is reported as 51.3% and the residual activity (RPS6KB1 (human)) is reported as 42.7%. For the same compound, the residual activity (DAPK3 (human)) was 104%, the residual activity (CDK1 CCNB1 (human)) was 84.9% and the residual activity (PAK1 (human)) was 92.9%. The residual activity (CHEK2 (human)) was 88.3%, the residual activity (MYO3B (human)) was 36% and the residual activity (FGFR2 (human)) was 103%. For the same compound, the residual activity (GSK3B (human)) was 14.2%, the residual activity (PRKCH (human)) was 29.7% and the residual activity (NTRK1 (human)) was 104%. The residual activity (LTK (human)) was 93.4%, the residual activity (PRKG1 (human)) was 88.8% and 89.3% and the residual activity (MAPK3 (human)) was 103%. It also gave a residual activity (FGR (human)) of 86.3%, a residual activity (ULK3 (human)) of 84.7% and a residual activity (MYLK2 (human)) of 95.7%. It also gave a residual activity (PLK3 (human)) of 99.8%, a residual activity (MARK1 (human)) of 93.6% and a residual activity (DYRK1B (human)) of 56.3%. For the same compound, the residual activity (CAMK2G (human)) was 90.9%, the residual activity (FRK (human)) was 107% and the residual activity (GRK6 (human)) was 98.4%. For the same compound, the residual activity (PRKCE (human)) was 12.8%, the residual activity (ROS1 (human)) was 78.7% and the residual activity (CSNK1G2 (human)) was 95.4%. For the same compound, the residual activity (FYN (human)) was 102%, the residual activity (MELK (human)) was 101% and the residual activity (PNCK (human)) was 90.6%. It also gave a residual activity (EPHA1 (human)) of 101%, a residual activity (MAPK14 (human)) of 88.3% and a residual activity (EPHA3 (human)) of 102%. It also gave a residual activity (CDK9 CCNK (human)) of 64.6%, a residual activity (SYK (human)) of 99.9% and a residual activity (ULK1 (human)) of 90.1%. The residual activity (CAMKK1 (human)) was 96.3%, the residual activity (PAK7 (human)) was 94.2% and the residual activity (PKN1 (human)) was 22.7%. For the same compound, the residual activity (CDK5 CDK5R1 p35 (human)) was 91.4%, the residual activity (AURKA (human)) was 78.8% and the residual activity (MAP3K2 (human)) was 83.3%.
Compound N#CC(C#N)=C(N)/C(C#N)=C/c1ccc(O)cc1 has a residual activity (MAPKAPK3 (human)) of 99.9%, a residual activity (CAMKK2 (human)) of 91.6% and a residual activity (RPS6KB1 (human)) of 89.5%. For the same compound, the residual activity (DAPK3 (human)) was 91.1%, the residual activity (CDK1 CCNB1 (human)) was 111% and the residual activity (PAK1 (human)) was 90.9%. It also gave a residual activity (CHEK2 (human)) of 95.5%, a residual activity (MYO3B (human)) of 88.1% and a residual activity (FGFR2 (human)) of 102%. For the same compound, the residual activity (GSK3B (human)) was 89.5%, the residual activity (PRKCH (human)) was 90.3% and the residual activity (NTRK1 (human)) was 102%. The residual activity (LTK (human)) was 92.5%, the residual activity (PRKG1 (human)) was 89.5% and 91.3% and the residual activity (MAPK3 (human)) was 101%. It also gave a residual activity (FGR (human)) of 98.7%, a residual activity (ULK3 (human)) of 67.8% and a residual activity (MYLK2 (human)) of 99.4%. It also gave a residual activity (PLK3 (human)) of 63.6%, a residual activity (MARK1 (human)) of 111% and a residual activity (DYRK1B (human)) of 101%. For the same compound, the residual activity (CAMK2G (human)) was 89.4%, the residual activity (FRK (human)) was 99% and the residual activity (GRK6 (human)) was 107%. It also gave a residual activity (PRKCE (human)) of 89.3%, a residual activity (ROS1 (human)) of 97.1% and a residual activity (CSNK1G2 (human)) of 104%. For the same compound, the residual activity (FYN (human)) was 98.4%, the residual activity (MELK (human)) was 101% and the residual activity (PNCK (human)) was 97.3%. It also gave a residual activity (EPHA1 (human)) of 103%, a residual activity (MAPK14 (human)) of 104% and a residual activity (EPHA3 (human)) of 98.3%. For the same compound, the residual activity (CDK9 CCNK (human)) was 100%, the residual activity (SYK (human)) was 101% and the residual activity (ULK1 (human)) was 89.3%. The residual activity (CAMKK1 (human)) was 104%, the residual activity (PAK7 (human)) was 94.5% and the residual activity (PKN1 (human)) was 89%. The residual activity (CDK5 CDK5R1 p35 (human)) was 91.9%, the residual activity (AURKA (human)) was 89.6% and the residual activity (MAP3K2 (human)) was 102%.
